Source: publication PMC6272399, “Anti-Proliferative Effect and Induction of Apoptosis in Androgen-Independent Human Prostate Cancer Cells by 1,5-Bis(2-hydroxyphenyl)-1,4-pentadiene-3-one” (Molecules, 2015)
“Also recorded” adds a separate entry of the source.

Columns and labels:
Assay type in all cases: cell-based, human
[1] = test system: caspase-3 activity in PC-3 cells; experiment: Caspase-3 colorimetric activity assay, PC-3
Description: (§1) Caspase-3 activity was determined using the caspase-3 colorimetric assay kit (Sigma-Aldrich) according to manufacturer’s protocol. The assay is based on spectrophotometric detection of p-nitroanilide (pNA) a colored molecule, after its cleavage from the labeled substrate DEVD-pNA by the activity of caspase-3 enzyme. PC-3 and DU 145 cells were treated with MS17 at different concentrations (EC50, 2 × EC50, 3 × EC50) at various time points, 6, 12, 24, 48 and 72 h as appropriate. Following treatment, cells were washed with PBS and suspended with lysis buffer (50 mM HEPES, pH 7.4, 5 mM CHAPS, 5 mM DTT) for 30 min on ice at the concentration of 10^7 cells per 100 µL buffer. Cells were then spun for 30 min at 16,000× g, 4 °C. Protein lysate concentrations were measured based on the Bradford assay method using the Cayman Chemical protein determination kit (Cayman Chemical Company, Ann Arbor, MI, USA) based on the manufacturer’s protocol. Assay was performed on a 96-well micro-titer plate by adding equal amount of protein lysate (~100 µg) into wells containing the assay buffer (20 mM HEPES pH 7.4, 0.1% CHAPS, 5 mM DTT, 2 mM EDTA). Reaction was started by the addition of 10 µL of substrate Ac-DEVD-pNA (2 mM). The effect of Ac-DEVD-CHO, a caspase-3 inhibitor was also studied simultaneously on caspase-3 activity. Ten microliter of the inhibitor (200 µM) was added into the wells containing the protein lysate, assay buffer and the substrate. Caspase-3 activity was measured upon the release of pNA molecule, a pale yellow colored product using the micro-plate ELISA reader (Bio-Rad) at the wavelength of 405 nm. Relative caspase-3 activity was expressed as absorbance of enzyme activity compared with the control (untreated cells/DMSO only) based on the equation below: Relative caspase 3 activity= Absorbance of treated cells /Absorbance of control

PC-3 cells = experiment: Free nucleosome detection (Cell Death Detection ELISA), PC-3; details: PC-3, 9.0 and 13.5 µM, 24, 48 and 72 h
Description: To confirm the presence of histone-bound DNA fragments (free nucleosomes) in the prostate cancer cells after the treatment of MS17, Cell Death Detection ELISA^PLUS kit (Roche Diagnostics) was used according to the manufacturer’s protocol. Cells were plated on a bottom flat tissue culture plates at a concentration of 10^5 cells per well and incubated for 24 h to allow the cells to adhere. After overnight incubation, MS17 at various concentrations (EC50, 2 × EC50, 3 × EC50) were added to a final volume of 100 µL per well and further incubated for 24, 48 and 72 h. The plate was centrifuged at 600 rpm at 4 °C for 10 min. The cell pellet containing the apoptotic bodies was resuspended in lysis buffer and incubated for 30 min at room temperature. […] The amount of nucleosomes retained by the POD in the immunocomplex, corresponding to the extent of apoptosis and necrosis, was determined with 2,2'-azinobis-3-ethyl-benzothiazoline-6-sulfonic acid (ABTS) as substrate using a micro-plate ELISA reader at a wavelength of 405/490 nm. The amount of enrichment of mono- and oligonucleosomes released into the cytoplasm was calculated using the following formula: Enrichment factor= Absorbance of sample/Absorbance of control

[2] = test system: caspase-3 activity in DU 145 cells; experiment: Caspase-3 colorimetric activity assay, DU 145
Description: as §1

DU 145 cells = experiment: AO/EB double staining, morphology and quantification of apoptotic and necrotic cells, DU 145; details: for necrotic cells: approximate
Description: Cell morphological changes were assessed by the differential staining DNA-intercalate fluorescent dyes acridine orange (AO) and ethidium bromide (EB). Cells (3 × 10^5) were seeded in a 6-well tissue culture plates, treated with MS17 at various concentrations (EC50, 2 × EC50, 3 × EC50) and incubated for 12, 24, 48 and 72 h time intervals. After incubation, cell pellets were suspended in 50 µL of cold PBS. To each samples, 10 µL of cell suspension was added with 1 µL of AO/EB dye mixture (1 part of 100 µg/mL of AO in PBS; 1 part of 100 µg/mL of EB in PBS) prior to microscopic examination. Ten microliter of the cell suspension mixed with the dye mixture was placed on a glass microscopic slide covered with a cover slip and was observed and photographed with a fluorescence microscope using a fluorescein filter (BX41, Olympus, Center Valley, PA, USA). A minimum of 200 total targeted cells were counted per sample and the percentage of cells from each population (viable, early apoptosis, late apoptosis and necrosis) was calculated. The experiment was conducted in triplicates. Untreated cells containing DMSO alone were used as negative control.

O=C(C=Cc1ccccc1O)C=Cc1ccccc1O [MS17, 1,5-bis(2-hydroxyphenyl)-1,4-pentadiene-3-one]
relative caspase-3 activity (treated vs untreated) ([1]; PC-3, 4.5, 9.0 and 13.5 µM, 48 h): increased significantly; also recorded: significant increase of caspase-3 activity | relative caspase-3 activity, differences between concentrations ([1]; PC-3, 12, 24 and 72 h): no significant differences of caspase-3 activity | nucleosomal fragments (enrichment factor) (PC-3 cells): significant increase in nucleosomal fragments | relative caspase-3 activity, differences between concentrations ([2]; DU 145, 6, 24, 48 and 72 h): no significant differences of caspase-3 activity | relative caspase-3 activity (treated vs untreated) ([2]; DU 145, 12 h, significant at 8.4 and 12.6 µM compared to 4.2 µM): increased significantly; also recorded: increase in caspase-3 activity | necrotic cells (DU 145 cells; DU 145, 4.2 µM, 48 h): approximately 10% | morphological observation of cell nuclei (AO/EB) (DU 145 cells; DU 145, MS17-treated vs untreated): typical signs of apoptosis such as cell shrinkage, formation of apoptotic bodies and membrane blebbing | necrotic cells (DU 145 cells; DU 145, all examined doses, 24 h): < 5%
